Laboratory results published in PubChem BioAssay AID248 (DTP/NCI, 2004).
Values joined by “and” are separate entries in the source; they are usually repeats but may differ in a detail not shown here. Identical values can stand only once. Inconclusive results and toxic doses are left out. No stated cut-off is given here; in the data, active means T/C of 150% or more; inactive means T/C below 125%.

Test system: L1210 leukemia ip in BDF1 mice, survival T/C
Experiment: NCI In Vivo Anticancer Drug Screen. Data for tumor model L1210 Leukemia (intraperitoneal) in B6D2F1 (BDF1) mice
Settings: endpoint: mean survival time, higher = longer survival
In short: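 Mice bearing the transplanted tumor received compound or vehicle. Survival of the treated group was divided by that of the vehicle-treated control group to give the ratio.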

[1] = dose: 100.0 mg/kg/injection, schedule: Q04DX002 (ip), vehicle: Klucel (hydroxypropylcellulose) (HPC)
[2] = dose: 200.0 mg/kg/injection, schedule: Q04DX002 (ip), vehicle: Klucel (hydroxypropylcellulose) (HPC)
[3] = dose: 400.0 mg/kg/injection, schedule: Q04DX002 (ip), vehicle: Klucel (hydroxypropylcellulose) (HPC)
[4] = dose: 100.0 mg/kg/injection, schedule: Q04DX003 (ip), vehicle: Klucel (hydroxypropylcellulose) (HPC)
[5] = dose: 200.0 mg/kg/injection, schedule: Q04DX003 (ip), vehicle: Klucel (hydroxypropylcellulose) (HPC)
[6] = dose: 400.0 mg/kg/injection, schedule: Q04DX003 (ip), vehicle: Klucel (hydroxypropylcellulose) (HPC)
[7] = dose: 100.0 mg/kg/injection, schedule: Q04DX003 (ip), vehicle: saline with Tween-80
[8] = dose: 200.0 mg/kg/injection, schedule: Q04DX003 (ip), vehicle: saline with Tween-80
[9] = dose: 400.0 mg/kg/injection, schedule: Q04DX003 (ip), vehicle: saline with Tween-80
[10] = dose: 50.0 mg/kg/injection, schedule: Q01DX001 (ip), vehicle: saline
[11] = dose: 100.0 mg/kg/injection, schedule: Q01DX001 (ip), vehicle: saline
[12] = dose: 200.0 mg/kg/injection, schedule: Q01DX001 (ip), vehicle: saline
[13] = dose: 400.0 mg/kg/injection, schedule: Q01DX001 (ip), vehicle: saline

Measured: T/C

CN1C2CCC1CC(OC(=O)c1ccc(O)cc1)C2 (stereo unspecified)
inactive: dose: 9.38 mg/kg/injection, schedule: Q01DX001 (ip), vehicle: saline 94 % of control | dose: 18.75 mg/kg/injection, schedule: Q01DX001 (ip), vehicle: saline 102 % of control

CCCCCCCCCCCCCCS
inactive: dose: 200.0 mg/kg/injection, schedule: Q01DX Z (ip), vehicle: methylcellulose (MC) 116 % of control | dose: 225.0 mg/kg/injection, schedule: Q01DX Z (ip), vehicle: methylcellulose (MC) 108 % of control | dose: 450.0 mg/kg/injection, schedule: Q01DX Z (ip), vehicle: methylcellulose (MC) 104 % of control | dose: 675.0 mg/kg/injection, schedule: Q01DX Z (ip), vehicle: methylcellulose (MC) 103 % of control

CC(=Nc1ccccc1)C1=C(O)C(Cc2ccccc2)NC1=O (stereo unspecified)
inactive: dose: 50.0 mg/kg/injection, schedule: Q01DX001 (ip), vehicle: carboxymethylcellulose (CMC) 101 % of control | dose: 100.0 mg/kg/injection, schedule: Q01DX001 (ip), vehicle: carboxymethylcellulose (CMC) 103 % of control | dose: 178.0 mg/kg/injection, schedule: Q01DX001 (ip), vehicle: carboxymethylcellulose (CMC) 101 % of control and 102 % of control | dose: 200.0 mg/kg/injection, schedule: Q01DX001 (ip), vehicle: carboxymethylcellulose (CMC) 120 % of control | dose: 267.0 mg/kg/injection, schedule: Q01DX001 (ip), vehicle: carboxymethylcellulose (CMC) 101 % of control and 109 % of control | dose: 400.0 mg/kg/injection, schedule: Q01DX001 (ip), vehicle: carboxymethylcellulose (CMC) 101 % of control and 117 % of control

CC(=C1C2CCC1C(C(=O)N(C)C)C2C(=O)N(C)C)C(Cl)(Cl)Cl (stereo unspecified)
inactive: [1] 94 % of control | [2] 110 % of control | [3] 90 % of control

Cc1cc(=O)[nH]c2ccc(-c3ccc4[nH]c(=O)cc(C)c4c3)cc12
inactive: dose: 100.0 mg/kg/injection, schedule: Q01DX009 (ip), vehicle: Klucel (hydroxypropylcellulose) (HPC) 101 % of control | [4] 102 % of control | dose: 200.0 mg/kg/injection, schedule: Q01DX009 (ip), vehicle: Klucel (hydroxypropylcellulose) (HPC) 95 % of control | [5] 100 % of control | dose: 400.0 mg/kg/injection, schedule: Q01DX009 (ip), vehicle: Klucel (hydroxypropylcellulose) (HPC) 95 % of control | [6] 100 % of control

O=C(O)C(Br)CO (stereo unspecified) (tested in a mixture with another compound)
inactive: dose: 100.0 mg/kg/injection, schedule: Q01DX001 (ip), vehicle: acetone 93 % of control | dose: 200.0 mg/kg/injection, schedule: Q01DX001 (ip), vehicle: acetone 95 % of control

OC1CC2CC1C=C2c1ccccc1 (stereo unspecified)
inactive: [7] 102 % of control | [8] 86 % of control | [9] 91 % of control

Cc1cccc(Nc2nc(N)nc(N)c2N)c1
inactive: dose: 25.0 mg/kg/injection, schedule: Q01DX Z (ip), vehicle: saline 101 % of control | dose: 50.0 mg/kg/injection, schedule: Q01DX Z (ip), vehicle: saline 91 % of control

COC(=O)C(Cc1[nH]c(N=Nc2ccc(Br)cc2)nc1N=Nc1ccc(Br)cc1)NC(=O)c1ccccc1 (stereo unspecified)
inactive: dose: 100.0 mg/kg/injection, schedule: Q01DX001 (ip), vehicle: saline with Tween-80 86 % of control | dose: 200.0 mg/kg/injection, schedule: Q01DX001 (ip), vehicle: saline with Tween-80 93 % of control | dose: 400.0 mg/kg/injection, schedule: Q01DX001 (ip), vehicle: saline with Tween-80 90 % of control

O=C(c1ccccc1)c1cc2ccccc2n1S(=O)(=O)c1ccccc1
inactive: [1] 95 % of control | [2] 98 % of control | [3] 95 % of control

Nc1c(O)c(Cl)cc(Cl)c1Cl
inactive: dose: 100.0 mg/kg/injection, schedule: Q04DX002 (ip), vehicle: other 110 % of control | dose: 200.0 mg/kg/injection, schedule: Q04DX002 (ip), vehicle: other 107 % of control

COc1ccc2c(c1)CCC1=C(C)C(=O)CCC12C (stereo unspecified)
inactive: dose: 100.0 mg/kg/injection, schedule: Q01DX001 (ip), vehicle: Klucel (hydroxypropylcellulose) (HPC) 102 % of control | dose: 200.0 mg/kg/injection, schedule: Q01DX001 (ip), vehicle: Klucel (hydroxypropylcellulose) (HPC) 98 % of control | dose: 400.0 mg/kg/injection, schedule: Q01DX001 (ip), vehicle: Klucel (hydroxypropylcellulose) (HPC) 98 % of control

O=C(O)CNC(=O)c1ccc(NC(=O)CBr)cc1
inactive: [10] 104 % of control | [11] 104 % of control | [12] 109 % of control

CN(/N=C/c1ccccc1)C(=N)N
inactive: dose: 5.0 mg/kg/injection, schedule: Q01DX009 (ip), vehicle: saline 106 % of control | dose: 10.0 mg/kg/injection, schedule: Q01DX001 (ip), vehicle: saline 98 % of control | dose: 10.0 mg/kg/injection, schedule: Q01DX009 (ip), vehicle: saline 93 % of control | dose: 10.0 mg/kg/injection, schedule: Q04DX003 (ip), vehicle: saline 101 % of control | dose: 20.0 mg/kg/injection, schedule: Q01DX001 (ip), vehicle: saline 101 % of control | dose: 20.0 mg/kg/injection, schedule: Q01DX009 (ip), vehicle: saline 104 % of control | dose: 20.0 mg/kg/injection, schedule: Q04DX003 (ip), vehicle: saline 97 % of control | dose: 40.0 mg/kg/injection, schedule: Q01DX001 (ip), vehicle: saline 93 % of control | dose: 40.0 mg/kg/injection, schedule: Q04DX003 (ip), vehicle: saline 103 % of control | dose: 62.5 mg/kg/injection, schedule: Q04DX003 (ip), vehicle: saline 117 % of control | dose: 75.0 mg/kg/injection, schedule: Q01DX001 (ip), vehicle: saline 100 % of control

COC(=O)NCCc1cc(OC)c(OC)cc1Br
inactive: [7] 86 % of control | [8] 91 % of control | [9] 91 % of control

COc1cc2ccc(CC3NCCc4cc5c(cc43)OCO5)cc2cc1OC (stereo unspecified)
inactive: dose: 100.0 mg/kg/injection, schedule: Q01DX009 (ip), vehicle: saline sonified 93 % of control | dose: 100.0 mg/kg/injection, schedule: Q04DX003 (ip), vehicle: saline sonified 88 % of control | dose: 200.0 mg/kg/injection, schedule: Q01DX009 (ip), vehicle: saline sonified 98 % of control | dose: 200.0 mg/kg/injection, schedule: Q04DX003 (ip), vehicle: saline sonified 88 % of control | dose: 400.0 mg/kg/injection, schedule: Q01DX009 (ip), vehicle: saline sonified 93 % of control | dose: 400.0 mg/kg/injection, schedule: Q04DX003 (ip), vehicle: saline sonified 95 % of control

COc1cccc(C(N)C(=O)O)c1 (stereo unspecified)
inactive: [10] 94 % of control | [11] 100 % of control | [12] 105 % of control | [13] 97 % of control

C=C1C(=O)O[C@@H]2C[C@@]3(C)CCC[C@H](C)C3=C[C@H]12
inactive: [11] 112 % of control | [12] 98 % of control | [13] 102 % of control

CCCc1ccccc1NC(=O)NCCCl
inactive: dose: 25.0 mg/kg/injection, schedule: Q04DX003 (ip), vehicle: Klucel (hydroxypropylcellulose) (HPC) 106 % of control | dose: 50.0 mg/kg/injection, schedule: Q04DX003 (ip), vehicle: Klucel (hydroxypropylcellulose) (HPC) 101 % of control | [4] 105 % of control and 86 % of control | [5] 89 % of control | [6] 88 % of control

O=C(OCC1OC(c2ccccc2)OC1C1OC(c2ccccc2)OC1COC(=O)c1ccccc1)c1ccccc1 (stereo unspecified)
inactive: [11] 103 % of control | [12] 110 % of control | [13] 110 % of control

CCC(Cl)COP(=O)(OCC(Cl)CC)C(C)P(=O)(OCC(Cl)CC)OCC(Cl)CC (stereo unspecified)
inactive: dose: 62.5 mg/kg/injection, schedule: Q04DX003 (ip), vehicle: Klucel (hydroxypropylcellulose) (HPC) 96 % of control | dose: 125.0 mg/kg/injection, schedule: Q04DX003 (ip), vehicle: Klucel (hydroxypropylcellulose) (HPC) 97 % of control | dose: 250.0 mg/kg/injection, schedule: Q04DX003 (ip), vehicle: Klucel (hydroxypropylcellulose) (HPC) 96 % of control

CCNC(C)C
inactive: dose: 25.0 mg/kg/injection, schedule: Q01DX009 (ip), vehicle: saline 98 % of control | dose: 25.0 mg/kg/injection, schedule: Q04DX003 (ip), vehicle: saline 92 % of control | dose: 50.0 mg/kg/injection, schedule: Q01DX009 (ip), vehicle: saline 93 % of control | dose: 50.0 mg/kg/injection, schedule: Q04DX003 (ip), vehicle: saline 97 % of control | dose: 100.0 mg/kg/injection, schedule: Q01DX009 (ip), vehicle: saline 98 % of control | dose: 100.0 mg/kg/injection, schedule: Q04DX003 (ip), vehicle: saline 95 % of control and 107 % of control
